Data on six compounds can be found in ChEMBL document CHEMBL5550216, “Discovery of Triazolopyrimidine Derivatives as Selective P2X3 Receptor Antagonists Binding to an Unprecedented Allosteric Site as Evidenced by Cryo-Electron Microscopy” (J Med Chem, 2024).

A value given as a limit tells only on which side of the number the result lay.

The nature of data set [1]: Metabolic stability in human liver microsomes assessed as compound remaining at 100 uM preincubated for 10 mins followed by NADPH addition and measured after 30 mins by LC-MS/MS analysis. Format: ADME, Microsome. The conditions noted are these: time 40 min, read-out: Stability.
A short description of data set [2]: Metabolic stability in mouse liver microsomes assessed as compound remaining at 100 uM preincubated for 10 mins followed by NADPH addition and measured after 30 mins by LC-MS/MS analysis. Format: ADME, Microsome. The following applies: time 40 min, read-out: Stability.
Data set [3] in a line: Metabolic stability in rat liver microsomes assessed as compound remaining at 100 uM preincubated for 10 mins followed by NADPH addition and measured after 30 mins by LC-MS/MS analysis. Format: ADME, Microsome. The following applies: time 40 min, read-out: Stability.
Data set [4] deals with T1, P2X purinoceptor 4 (Homo sapiens, UniProt Q99571).
T1 sequence (Q99571 whole entry): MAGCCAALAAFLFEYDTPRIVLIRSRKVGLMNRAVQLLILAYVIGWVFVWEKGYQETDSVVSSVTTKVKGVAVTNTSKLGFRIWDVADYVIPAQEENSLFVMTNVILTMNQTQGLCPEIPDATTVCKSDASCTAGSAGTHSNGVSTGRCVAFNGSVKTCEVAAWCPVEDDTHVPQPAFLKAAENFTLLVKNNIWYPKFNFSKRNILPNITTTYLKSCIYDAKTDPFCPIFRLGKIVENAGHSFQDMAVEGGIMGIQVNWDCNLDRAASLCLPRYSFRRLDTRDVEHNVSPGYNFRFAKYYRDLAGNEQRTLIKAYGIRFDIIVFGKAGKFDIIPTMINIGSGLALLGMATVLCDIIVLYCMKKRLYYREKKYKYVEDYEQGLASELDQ
In words: Antagonist activity at human P2X4 receptor expressed in 1321N1 cells incubated for 30 mins in presence of ATP by Fluo-4 dye based microplate reader assay. Format: cell-based.

In data set [5] the target is T2, P2X purinoceptor 7 (Homo sapiens, UniProt Q99572).
T2 sequence (Q99572 whole entry): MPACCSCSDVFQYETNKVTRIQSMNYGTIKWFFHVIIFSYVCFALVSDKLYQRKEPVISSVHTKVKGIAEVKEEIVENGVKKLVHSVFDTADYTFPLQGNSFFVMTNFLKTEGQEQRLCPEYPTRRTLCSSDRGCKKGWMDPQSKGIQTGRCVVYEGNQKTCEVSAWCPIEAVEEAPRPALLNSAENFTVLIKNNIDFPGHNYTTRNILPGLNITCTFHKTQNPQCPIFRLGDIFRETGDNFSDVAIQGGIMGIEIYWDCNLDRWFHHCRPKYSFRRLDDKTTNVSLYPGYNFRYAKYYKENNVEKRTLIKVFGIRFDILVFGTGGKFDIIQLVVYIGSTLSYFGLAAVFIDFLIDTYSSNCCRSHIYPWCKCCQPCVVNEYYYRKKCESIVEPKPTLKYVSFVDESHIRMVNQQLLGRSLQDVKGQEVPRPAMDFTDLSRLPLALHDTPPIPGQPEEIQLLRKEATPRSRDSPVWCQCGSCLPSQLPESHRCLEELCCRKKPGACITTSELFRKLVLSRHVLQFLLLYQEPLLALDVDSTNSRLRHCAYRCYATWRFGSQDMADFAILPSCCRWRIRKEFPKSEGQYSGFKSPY
In words: Antagonist activity at human P2X7 receptor expressed in 1321N1 cells incubated for 30 mins in presence of Bz-ATP by Fluo-4 dye based microplate reader assay. In kind it is cell-based.

A short description of data set [6]: Permeability of compound at 10 uM incubated for 4 hrs by PAMPA. In kind it is ADME. The conditions noted are these: read-out: permeability.
Data set [7] has as its target T3, P2X purinoceptor 1 (Homo sapiens, UniProt P51575).
T3 sequence (P51575 whole entry): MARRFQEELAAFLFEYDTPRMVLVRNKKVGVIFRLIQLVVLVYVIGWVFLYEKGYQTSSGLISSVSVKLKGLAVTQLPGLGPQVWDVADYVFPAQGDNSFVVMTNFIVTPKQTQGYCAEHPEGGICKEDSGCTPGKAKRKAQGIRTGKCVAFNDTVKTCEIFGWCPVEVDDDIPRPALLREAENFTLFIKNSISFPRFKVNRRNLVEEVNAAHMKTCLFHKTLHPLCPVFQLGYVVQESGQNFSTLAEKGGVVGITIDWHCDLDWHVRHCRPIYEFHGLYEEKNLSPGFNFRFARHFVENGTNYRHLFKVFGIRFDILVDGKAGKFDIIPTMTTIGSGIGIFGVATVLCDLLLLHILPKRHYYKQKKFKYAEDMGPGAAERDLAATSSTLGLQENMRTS
In words: Antagonist activity at human P2X1 receptor expressed in 1321N1 cells incubated for 30 mins in presence of ATP by Fluo-4 dye based microplate reader assay. In kind it is cell-based.

Data set [8] deals with T4, P2X purinoceptor 3 (Homo sapiens, UniProt P56373).
T4 sequence (P56373 whole entry): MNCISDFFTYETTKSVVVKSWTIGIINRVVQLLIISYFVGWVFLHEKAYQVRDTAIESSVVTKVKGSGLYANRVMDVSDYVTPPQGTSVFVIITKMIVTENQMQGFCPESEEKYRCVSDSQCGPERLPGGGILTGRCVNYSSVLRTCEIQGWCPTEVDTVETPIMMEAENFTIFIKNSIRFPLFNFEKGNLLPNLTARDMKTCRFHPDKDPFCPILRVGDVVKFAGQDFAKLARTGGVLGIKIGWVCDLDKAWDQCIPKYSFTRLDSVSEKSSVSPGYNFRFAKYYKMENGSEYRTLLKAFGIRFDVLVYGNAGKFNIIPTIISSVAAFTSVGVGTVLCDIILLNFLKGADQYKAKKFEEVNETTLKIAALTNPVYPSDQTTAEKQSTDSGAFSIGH
In words: Antagonist activity at human P2X3R expressed in HEK293 cells incubated for 18 hrs by Fluo-4 dye based microplate reader assay.

Data set [9] concerns the target T5, P2X2/P2X3 heterotrimeric receptor (Homo sapiens, UniProt P56373+Q9UBL9).
T5 sequence (Q9UBL9 whole entry): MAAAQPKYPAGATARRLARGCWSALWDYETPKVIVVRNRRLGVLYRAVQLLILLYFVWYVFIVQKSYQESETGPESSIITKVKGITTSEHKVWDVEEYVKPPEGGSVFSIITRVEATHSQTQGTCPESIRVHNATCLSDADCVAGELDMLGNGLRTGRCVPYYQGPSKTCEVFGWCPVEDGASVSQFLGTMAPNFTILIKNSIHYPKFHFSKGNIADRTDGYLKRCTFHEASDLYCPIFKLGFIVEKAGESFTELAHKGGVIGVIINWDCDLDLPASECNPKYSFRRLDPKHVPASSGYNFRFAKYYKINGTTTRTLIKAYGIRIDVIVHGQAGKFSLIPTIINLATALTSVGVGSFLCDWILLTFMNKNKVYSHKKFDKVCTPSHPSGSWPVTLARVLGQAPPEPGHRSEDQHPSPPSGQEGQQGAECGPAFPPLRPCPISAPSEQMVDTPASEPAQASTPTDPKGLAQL
T5 sequence (P56373 whole entry): T4 sequence (P56373 whole entry)
In words: Antagonist activity at human P2X2/3R expressed in HEK293 cells incubated for 18 hrs by Fluo-4 dye based microplate reader assay.

Data set [10] deals with T5, P2X2/P2X3 heterotrimeric receptor. The experiment in a line: Antagonist activity at human P2X2/3 receptor expressed in HEK293 cells preincubated for 30 mins followed by alpha, beta me-ATP addition and measured for 10 mins by Fluo-8 dye based FLIPR assay.

With `CC(=O)N1CCN(c2cc(N[C@H](C)c3ccc4ccccc4c3)n3nc(C4CCCC4)nc3n2)CC1`, the remaining at 0.5 h, 100 µM in data set [1] was found to be 33.2%; in data set [2], 15.2%; in data set [3], 4.2%.

As for `CC(=O)N1CCN(c2cc(N[C@H](C)c3ccc4ccccc4c3)n3nc(C4CCC4)nc3n2)CC1`, the remaining at 0.5 h, 100 µM in data set [1] is 28.3%; in data set [2], 18%; in data set [3], 0.2%.

For `C[C@@H](Nc1cc(N2CCN(C(N)=O)CC2)nc2nc(C3CC3)nn12)c1ccc2ccccc2c1`, the remaining at 0.5 h, 100 µM in data set [1] was determined as 50.2%; in data set [2], 50.6%; in data set [3], 0.3%. The IC50 in data set [4] was more than 10 µM; in data set [5], more than 10 µM; in data set [7], 4.28 µM. Further, in data set [6], the Papp at 4 h, 10 µM was less than 0.0185 ×10⁻⁶ cm/s.

With `CNC(=O)c1cc(F)c(-c2nc3cc(C)ccn3c2CC2CCCN(C(=O)OC)C2)c(F)c1` (single isomer, unassigned), the values for the IC50 in data set [8], in data set [9] and in [10] were 0.0155 µM, 5.06 µM and more than 24 µM, respectively.

Turning to `NC(=O)N1c2ccccc2C=Cc2ccccc21` [CARBAMAZEPINE], in data set [6], the Papp at 4 h, 10 µM came to 5.41 ×10⁻⁶ cm/s.

For `CC(C)(C)NCC(O)COc1cccc2c1CC(O)C(O)C2` (stereo not drawn) [NADOLOL], the Papp at 4 h, 10 µM in data set [6] was less than 0.0185 ×10⁻⁶ cm/s.
